In patent US20240336617A1, “Substituted Bimane Compounds and Methods of Use Thereof” (THE TRUSTEES OF THE UNIVERSITY OF PENNSYLVANIA, priority 2023, published 2024):

Key:
[1] = Absorbance measurements (UV-Vis); settings: for Absorbance Wavelength: ACN:PBS buffer (50:50 v/v); for λabs: ACN/PBS
Procedure: Samples were individually diluted to the final concentration of 25 μM (500 μL) using 50:50 acetonitrile in phosphate buffered saline (ACN/PBS). The absorbance spectrum of each derivative (150 μL) was measured on a Thermo Scientific Genesys 150 UV-Vis spectrometer, using 50:50 ACN/PBS as a blank.

[2] = biological target: T1, αS fibrils (Homo sapiens, UniProt P37840); assay: Fluorescence spectra with αS fibrils; type: binding
T1 construct: intein-His6 (C, cleaved yes); made in house; host or cells: Escherichia coli BL21
Procedure: Fluorescence measurements were performed using a PTI QuantaMaster™ 40 fluorescence spectrometer. Fluorescence spectra of 10 μM probes (concentrated stock solution prepared as 10 mM in DMSO) (7b, 7c, 7d, 7e, 7f, 7g and 7h) in PBS buffer were measured by excitation at their absorbance maximum wavelength in the absence and presence of 50 μM αS fibrils (stock solution 100 μM αS fibrils in PBS buffer).
Fluorescence spectra with αS fibrils. Fluorescence measurements were performed using a PTI QuantaMaster 40 fluorescence spectrometer. Fluorescence spectra of 10 μM probes (concentrated stock solution prepared as 10 mM in DMSO) (5b-5f and 5h) in PBS buffer were measured by excitation at their absorbance maximum wavelength in the absence and presence of 50 μM αS fibrils (stock solution 100 μM αS fibrils in PBS buffer). […] FIGS. 77A-77F show fluorescence spectra of probes (5b-5f and 5h) with and without αS fibrils. Final concentrations of probes and αS fibrils were 10 μM and 50 μM, respectively. Emission spectra collected at each dye's maximum absorption wavelength. Ex/Em slit widths: 3 nm/3 nm. […] Absorbance is shown in FIG. 78A and FIG. 78B, whereas FIG. 78C and FIG. 78D show excitation spectra of probes 5j and 5k with and without αS fibrils. Final probe and fibrils concentrations were 10 μM and 50 μM, respectively. […] Emission wavelengths were 575 nm for 5j, 580 nm for 5k. Ex/Em slit widths: 3 nm/3 nm. […] Black line indicates incident light (αS fibrils without probe) and blue line indicates sample (αS fibrils with probe). Excitation at λexc=435 nm for 5j and λexc=463 nm for 5k and spectral collection (400-800 nm). Final concentrations of the probe and αS fibrils are the 100 μM. Ex/Em slit widths: 5 nm/5 nm.

[3] = biological target: T1, αS fibrils; assay: Competition binding with ThT on αS fibrils
[4] = Molar absorptivity determination; type: physicochemical;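 further: molar absorptivity derived from UV-Vis absorbance spectra recorded for each derivative on a spectrometer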
Procedure: The absorbance spectrum of each derivative (150 μL) was measured on a Thermo Scientific Genesys 150 UV-Vis spectrometer, using 50:50 ACN/PBS as a blank.
Molar absorptivity determination. […] The absorbance spectrum of each derivative (150 μL) was measured on a Thermo Scientific Genesys 150 UV-Vis spectrometer, using 50:50 ACN/PBS as a blank.

[5] = Fluorescent quantum yield (QY) measurements; type: physicochemical; settings: for Fluorescence QY: ACN/PBS buffer (1:1 v/v); for Fluorescence quantum yield: in ACN
Procedure: For each QY measurement, the incident excitation light spectrum was collected with 1 mL of solvent. […] Using the JASCO Quantum Yield Software, the dye QY was calculated by dividing the dye fluorescence intensity by the difference in incident light intensity in the presence and absence of dye. The minimum excitation wavelength for a full excitation incident spectrum using this setup is 360 nm.
Fluorescent quantum yield (QY) measurements. For each QY measurement, the incident excitation light spectrum was collected with 1 mL of solvent. After measuring the incident light intensity, dye (3 and 5a-5k) was added to the solvent from a concentrated stock solution to a final concentration of […] and the new spectrum (fluorescence intensity and new incident light intensity) was collected. Using the JASCO Quantum Yield Software, the dye QY was calculated by dividing the dye fluorescence intensity by the difference in incident light intensity in the presence and absence of dye. The minimum excitation wavelength for a full excitation incident spectrum using this setup is 360 nm.

[6] = Solvatochromic measurements; type: physicochemical; settings: organic solvents of different polarity
Procedure: The remaining 850 μL solution was used to obtain fluorescence images under a handheld 365 nm UV lamp.
Solvatochromic measurements. […] The remaining 850 μL solution was used to obtain fluorescence images under a handheld 365 nm UV lamp.

[7] = Fluorescence (emission) measurements; type: physicochemical; settings: for Emission λem: Table S12; for maximum emission wavelength (λem): 50:50 ACN/PBS, excitation at λabs;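 on all read-outs here: fluorescence emission spectra recorded on a spectrofluorometer, with each compound excited at its own absorption maximum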
Procedure: The fluorescence spectrum of each derivative (150 μL) was measured on a Photon Technology International (PTI) QuantaMaster™ 40 fluorescence spectrometer by excitation at the maximum absorption wavelength for each compound.
The fluorescence spectrum of each derivative (150 μL) was measured on a Photon Technology International (PTJ) QuantaMaster™ 40 fluorescence spectrometer by excitation at the maximum absorption wavelength for each compound.

[8] = pH measurements (absorption and emission); type: physicochemical; settings: pH 2-11
Procedure: 10 mM stock solutions of 7h, 7j, and 7k in DMSO were individually diluted into ACN/PBS buffer (50:50 v/v) having different pH ranging from pH 2-11 with 25 μM (500 μL) of final concentration. For pH screening of 7h and 7j, PBS buffer solutions were prepared, then adjusted the pH 2, 4, and 7 by adding 6 M hydrochloric acid, pH 9 and 11 by adding 5 M sodium hydroxide. For pH screening of 7k, pH 4.4 and 7.4 were prepared by citric acid/phosphate buffer. Then, the absorption and fluorescence spectra were recorded by using Thermo Scientific Genesys 150 UV-Vis spectrometer, followed by PTI QuantaMaster™ 40 fluorescence spectrometer by excitation with maximum absorption wavelength.
pH measurements. 10 mM stock solutions of 5h and 5j in DMSO were individually diluted into ACN/PBS buffer (50:50 v/v) having different pH ranging from pH 2-11 with 25 µM (500 μL) of final concentration. For pH screening of 5h and 5j, PBS buffer solutions were prepared, then adjusted the pH 2, 4, and 7 by adding 6 M hydrochloric acid, pH 9 and 11 by adding 5 M sodium hydroxide. Then, we have recorded the absorption and fluorescence spectra by using Thermo Scientific Genesys 150 UV-Vis spectrometer, followed by PTI QuantaMaster™ 40 fluorescence spectrometer by excitation with maximum absorption wavelength.

[9] = Fluorescence lifetime measurements (TCSPC); type: physicochemical; settings: for Fluorescence Lifetime: ACN/PBS buffer (1:1 v/v); for Lifetime: ACN/PBS buffer (50:50 v/v), excitation 340 nm
Procedure: Time correlated single photon counting (TCSPC) measurements of fluorescence lifetime decays for 100 μM solutions of dyes (6, 7c, 7e, 7f, and 7g) in ACN/PBS buffer (50:50 v/v) were collected with the PTI Quantamaster™ 40 using a pulsed LED with a maximum emission at 340 nm. Fluorescence emission was collected at the indicated wavelength for each dye with 20 nm slit widths. The instrument response function (IRF) was collected under identical conditions. Data analysis was performed with FluoFit software (PicoQuant GmbH; Berlin, Germany) using an exponential decay model.
Fluorescence lifetime measurements. Time correlated single photon counting (TCSPC) measurements of fluorescence lifetime decays for 100 μM solutions of dyes (3 and 5c-f) in ACN/PBS buffer (50:50 v/v) were collected with the PTI Quantamaster™ 40 using a pulsed LED with a maximum emission at 340 nm. Fluorescence emission was collected at the indicated wavelength for each dye with 20 nm slit widths. The instrument response function ([…]) was collected under identical conditions. Data analysis was performed with FluoFit software (PicoQuant GmbH; Berlin, Germany) using an exponential decay model. […] FIG. 64D Fluorescence spectra of 5i-5k. […] Fluorescence spectra were measured at their maximum absorption wavelength. FIGS. 66A-66K show representative QY acquisitions of 3 and 5a-f, 5h-k in ACN/PBS buffer (50:50). All had consistent excitation (360 nm) and spectral collection (350-800 nm) parameters. Final concentration of the probe is 500 μM. Black line indicates incident light and blue line indicates sample spectrum. […] All had consistent excitation (360 nm, slit width 10 nm) and spectral collection (350-800 nm) parameters. Final concentration of the probe is 500 µM. Black line indicates incident light and blue line indicates sample spectrum. FIG. 68: Effect of pH on absorption and emission of 5h and 5j. […] For pH screening of 5h and 5j, PBS buffer solutions were prepared, then adjusted the pH 2, 4, and 7 by adding 6 M hydrochloric acid, pH 9 and 11 by adding 5 M sodium hydroxide. Emission spectra were measured by the excitation wavelength 354 nm for 5h and 385 nm for 5j. […] Lifetime measurements with exponential fits shown at left and residuals after fitting shown at right.

[10] = 25 μM in ACN/PBS buffer (1:1 v/v), pH 7.4
[11] = ACN/PBS buffer (1:1 v/v), pH 7.4
[12] = in ACN, at maximum absorption wavelength

Row | Compound | Absorbance Wavelength ([1]; Table 11) | Absorbance λmax ([1]; 25 μM in ACN) | Absorbance λmax [1, 10] | λabs [1] | Absorbance Wavelength ([1]; Table S14) | Molar Absorptivity (ε) [4, 11] | Molar Absorptivity (ε) [4, 12] | Fluorescence QY [5] | Fluorescence quantum yield [5] | Fluorescence quantum yield ([5]; Table S12) | solvatochromism / environmental sensitivity [6] | Emission λmax [7, 10] | Stokes shift ([7]; ACN/PBS buffer (1:1 v/v)) | Stokes shift ([7]; in ACN) | Emission λmax ([7]; 25 μM in ACN) | Emission λem ([7]; 25 μM in ACN) | maximum emission wavelength (λem) [7] | Fluorescence Lifetime [9] | Lifetime ([9]; Table 4) | Lifetime ([9]; Table S13) | further results
1 | (E)-3-(4-(dimethylamino)styryl)-2,5,6-trimethyl-1H,7H-pyrazolo[1,2-a]pyrazole-1,7-dione [Compound 7l] | 385 nm | – | – | – | – | – | – | – | – | – | – | – | – | – | – | – | – | – | – | – | concentration-dependent shift in the emission maximum with αS fibrils [2]: binding at limited sites with high affinity; competition with ThT on αS PFFs [3]: displacement of the known amyloid-binding dye ThT
2 | COP(=O)(Cc1c(C)c(=O)n2c(=O)c(C)c(C)n12)OC [Compound 6, dimethyl ((2,5,6-trimethyl-1,7-dioxo-1H,7H-pyrazolo[1,2-a]pyrazol-3-yl)methyl)phosphonate] | – | 375 nm | 384 nm | – | – | 7902 M⁻¹ cm⁻¹ | 6121 M⁻¹ cm⁻¹ | 64.6% | 77.7% | 77.7% | no significant environmental sensitivity | 464 nm | 80 nm | 57 nm | 432 nm | 432 nm | 464 nm | 2.32 ns | 2.32 ± 0.01 ns | 2.32 ± 0.01 ns | fluorescent lifetime ([9]; ACN/PBS): 2.32 ns; fluorescence quantum yield (QY) ([5]; in ACN/PBS): 64.6%

Continued, in another order:

Row | Absorbance Wavelength ([1]; Table 11) | Absorbance λmax ([1]; 25 μM in ACN) | Absorbance λmax [1, 10] | λabs [1] | Absorbance Wavelength ([1]; Table S14) | Molar Absorptivity (ε) [4, 11] | Molar Absorptivity (ε) [4, 12] | Fluorescence QY [5] | Fluorescence quantum yield [5] | Fluorescence quantum yield ([5]; Table S12) | solvatochromism / environmental sensitivity [6] | Emission λmax [7, 10] | Stokes shift ([7]; ACN/PBS buffer (1:1 v/v)) | Stokes shift ([7]; in ACN) | Compound | Emission λmax ([7]; 25 μM in ACN) | Emission λem ([7]; 25 μM in ACN) | maximum emission wavelength (λem) [7] | Fluorescence Lifetime [9] | Lifetime ([9]; Table 4) | Lifetime ([9]; Table S13) | further results
3 | 320 nm | 316 nm | 320 nm | 320 nm | 320 nm | 38995 M⁻¹ cm⁻¹ | 43238 M⁻¹ cm⁻¹ | 0.8% | 1.4% | 1.4% | no significant solvatochromism | 520 nm | 200 nm | 206 nm | Cc1c(C)n2c(/C=C/c3ccc(C#N)cc3)c(C)c(=O)n2c1=O [Compound 7b, (E)-4-(2-(2,5,6-trimethyl-1,7-dioxo-1H,7H-pyrazolo[1,2-a]pyrazol-3-yl)vinyl)benzonitrile] | 522 nm | 522 nm | – | – | – | – | –
4 | 348 nm | 342 nm | 354 nm | – | 354 nm | 31514 M⁻¹ cm⁻¹ | 29910 M⁻¹ cm⁻¹ | 2.3% | 3.1% | 3.1% | – | 506 nm | 152 nm | 144 nm | Cc1c(C)n2c(/C=C/c3ccc(O)cc3)c(C)c(=O)n2c1=O [Compound 7h, (E)-3-(4-hydroxystyryl)-2,5,6-trimethyl-1H,7H-pyrazolo[1,2-a]pyrazole-1,7-dione] | – | – | 505 nm | – | – | – | pH effects on absorption and emission [8]: red-shifted absorption at pH 11 with a reduced QY, but no shift in emission
5 | 321 nm | 316 nm | 321 nm | 321 nm | 321 nm | 23959 M⁻¹ cm⁻¹ | 32724 M⁻¹ cm⁻¹ | 2.5% | 3.1% | 3.1% | no significant solvatochromism | 503 nm | 182 nm | 176 nm | Cc1c(C)n2c(/C=C/c3ccccc3)c(C)c(=O)n2c1=O [Compound 7e, (E)-2,3,6-trimethyl-5-styryl-1H,7H-pyrazolo[1,2-a]pyrazole-1,7-dione] | – | – | – | 1.02 ns | 1.02 ± 0.004 ns | 1.02 ± 0.004 ns | –
